Assay results reported in patent publication US9296693B2, “Acyl piperidine inhibitors of soluble epoxide hydrolase” (The Regents of the University of California, priority 2010, dated 2016).
Several values for one entry are separate records, joined by “and”; a condition that tells them apart may be missing. Equal entries are not always repeated.

Assays:
Human sEH = Human sEH (Homo sapiens (Human), UniProt P34913); assay: fluorescent based IC50 assay (CMNPC substrate), recombinant human sEH; settings: read-out: IC50 (nM) Human; homogenous recombinant human sEH 1 nM, CMNPC 5 μM, pH 7.0, 30° C., average of three replicates;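 also: enzyme preincubated with inhibitor for 5 min before adding substrate, in 25 mM Bis-Tris/HCl buffer supplemented with 0.1 mg/mL BSA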
[1] = log P by shake flask method (OECD guideline 107); format: physicochemical
murine sEH = murine sEH (Mus musculus (Mouse), UniProt P34914); assay: fluorescent based IC50 assay (CMNPC substrate), recombinant murine sEH; format: biochemical; settings: homogenous recombinant murine sEH 1 nM, CMNPC 5 μM, pH 7.0, 30° C., average of three replicates
[2] = Pharmacokinetic screening of selected haloalkyl-phenyl ureas, blood profiles; format: in vivo; settings: whole blood
[3] = Log P determination by HPLC method (OECD guideline 117); format: physicochemical; settings: octanol/water; read-out: log P (±0.5)
Description: Log P and purity analyses were performed using a Hewlett Packard 1100 HPLC equipped with a diode array detector. A Phenomenex Luna 150 mm×4.6 mm, 5 μm, C-18 column was used for all HPLC analyses.

murine sEH, sequence (P34914 whole entry): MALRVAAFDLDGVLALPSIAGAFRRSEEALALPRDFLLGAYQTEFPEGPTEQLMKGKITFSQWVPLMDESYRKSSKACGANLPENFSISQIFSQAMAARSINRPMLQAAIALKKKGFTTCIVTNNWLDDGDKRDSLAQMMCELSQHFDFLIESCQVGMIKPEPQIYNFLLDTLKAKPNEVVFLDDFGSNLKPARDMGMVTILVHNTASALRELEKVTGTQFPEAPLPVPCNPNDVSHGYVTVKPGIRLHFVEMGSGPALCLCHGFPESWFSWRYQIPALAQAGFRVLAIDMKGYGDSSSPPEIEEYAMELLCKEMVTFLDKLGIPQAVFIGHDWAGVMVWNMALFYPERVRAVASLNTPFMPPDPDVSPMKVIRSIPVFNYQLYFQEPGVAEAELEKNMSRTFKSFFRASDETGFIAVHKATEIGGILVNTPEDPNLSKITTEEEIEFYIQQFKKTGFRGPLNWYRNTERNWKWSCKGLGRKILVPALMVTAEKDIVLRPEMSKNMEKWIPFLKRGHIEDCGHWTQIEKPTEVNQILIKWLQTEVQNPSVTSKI
Human sEH, sequence (P34913 whole entry): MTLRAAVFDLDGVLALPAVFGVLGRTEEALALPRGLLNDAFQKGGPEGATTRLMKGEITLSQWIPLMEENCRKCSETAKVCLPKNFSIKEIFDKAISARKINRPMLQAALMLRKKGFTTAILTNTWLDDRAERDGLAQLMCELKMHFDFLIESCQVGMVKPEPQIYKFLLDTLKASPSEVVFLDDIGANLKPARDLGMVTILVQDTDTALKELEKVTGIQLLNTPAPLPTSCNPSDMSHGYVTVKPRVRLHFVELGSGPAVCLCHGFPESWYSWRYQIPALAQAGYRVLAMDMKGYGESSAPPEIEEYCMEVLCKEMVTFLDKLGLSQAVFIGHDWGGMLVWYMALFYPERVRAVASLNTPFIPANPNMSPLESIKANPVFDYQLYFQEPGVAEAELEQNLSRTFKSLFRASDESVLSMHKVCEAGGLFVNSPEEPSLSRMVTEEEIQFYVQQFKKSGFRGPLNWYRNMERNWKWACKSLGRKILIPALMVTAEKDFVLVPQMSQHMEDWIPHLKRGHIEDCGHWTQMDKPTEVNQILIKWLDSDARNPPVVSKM

Row | IC50 (Human sEH) | log P [1] | IC50 (murine sEH) | chromatographic logP [3] | SMILES | AUC [2] | Cmax [2] | Tmax [2] | half-life [2]
1 | 79 nM | 1.9 | 110 nM |  | CCC(=O)N1CCC(NC(=O)Nc2ccc(F)cc2)CC1 [Compound 24, 1-(4-Fluorophenyl)-3-(1-propionylpiperidin-4-yl)urea] |  |  |  | 
2 | 0.5 nM | 2.3 | 2.7 nM |  | O=C(Nc1ccc(OC(F)(F)F)cc1)NC1CCN(C(=O)c2cc(O)c(O)c(O)c2)CC1 [Compound 54, 1-(4-(Trifluoromethoxy)phenyl)-3-(1-(3,4,5-trihydroxybenzoyl)piperidin-4-yl)urea] |  |  |  | 
3 |  |  |  |  | CCCCS(=O)(=O)N1CCC(NC(=O)Nc2ccc(C(F)(F)F)cc2)CC1 [Compound 69, 1-(1-(butylsulfonyl)piperidin-4-yl)-3-(4-(trifluoromethyl)phenyl)urea] | 15.5 µM·h | 1.7 µM | 1 h | 4.5 h
4 |  |  |  |  | O=C(Nc1ccc(C(F)(F)F)cc1)NC1CCN(C(=O)C2CC2)CC1 [Compound 61, 1-(1-cyclopropanecarbonylpiperidin-4-yl)-3-(4-(trifluoromethyl)phenyl)urea] | 170 µM·h | 10.2 µM | 4 h | 10.6 h
5 | 3800 nM |  | > 5000 nM and 12000 nM | < 0 | CCC(=O)N1CCC(NC(=O)Nc2cccnc2)CC1 [Compound 9, 1-(1-Propionylpiperidin-4-yl)-3-(pyridin-3-yl)urea] |  |  |  | 
